Measurements taken from ChEMBL document CHEMBL5512633, “Hit-to-lead optimization of 2-aminoquinazolines as anti-microbial agents against Leishmania donovani” (Eur J Med Chem, 2024).
Active and inactive are the calls of the source. No cut-off for these calls is given here.

Legend:
[1] = Metabolic stability in human liver microsomes assessed as hepatic blood flow preincubated for 10 mins and measured after 60 mins by LC-MS/MS analysis; assay type: ADME, Microsome; settings: read-out: QH
[2] = Stability in mouse plasma assessed as compound remaining measured after 2 hrs by LC-MS/MS analysis; assay type: ADME, cell-free; settings: read-out: Stability
[3] = Cytotoxicity against human THP-1 cells incubated for 72 hrs by DAPI staining based analysis; assay type: toxicity, cell-based
[4] = Metabolic stability in human liver microsomes assessed as half-life preincubated for 10 mins and measured after 60 mins by LC-MS/MS analysis; assay type: ADME, Microsome
[5] = Metabolic stability in mouse liver microsomes assessed as half-life preincubated for 10 mins and measured after 60 mins by LC-MS/MS analysis; assay type: ADME, Microsome
[6] = Metabolic stability in mouse liver microsomes assessed as hepatic blood flow preincubated for 10 mins and measured after 60 mins by LC-MS/MS analysis; assay type: ADME, Microsome; settings: read-out: QH
[7] = Stability in human plasma assessed as compound remaining measured after 2 hrs by LC-MS/MS analysis; assay type: ADME, cell-free; settings: read-out: Stability
[8] = Lipophilicity, logD of compound in 1-octanol and phosphate buffer at pH 7.4 by HPLC-UV analysis; assay type: physicochemical; settings: 1-octanol/phosphate buffer
Leishmania donovani [9] = assay: Antileishmanial activity against Leishmania donovani MHOM/IN/1983/AG83 axenic amastigotes assessed as inhibition of growth incubated for 48 hrs by flow cytometric analysis; assay type: functional, organism-based; settings: MHOM/IN/1983/AG83, 48 h
[10] = Selectivity index, ratio of CC50 for cytotoxicity against human HepG2 cells to IC50 for antileishmanial activity against Leishmania donovani MHOM/IN/1983/AG83 axenic amastigotes; assay type: toxicity, cell-based; settings: read-out: Ratio CC50/IC50
[11] = Cytotoxicity against human HepG2 cells incubated for 48 hrs by PI staining based flow cytometric analysis; assay type: toxicity, cell-based
Leishmania donovani [12] = assay: Antileishmanial activity against Leishmania donovani; assay type: functional, organism-based
Leishmania donovani [13] = assay: Antileishmanial activity against Leishmania donovani MHOM/IN/1983/AG83 axenic amastigotes assessed as inhibition of growth at 30 uM incubated for 48 hrs by flow cytometric analysis relative to control; assay type: functional

remaining at 2 h [2] [%] | remaining at 2 h [7] [%] | logD [8] | SMILES | CC50 at 72 h [3] [µM] | IC50 (Leishmania donovani [9]) [µM] | other results
96.9 | 105 | 2.64 | COc1cc2c(N3CCCCC3)nc(NCc3ccc(F)cc3)nc2cc1OC1CCCC1 | 46.5 | 10.2 | hepatic extraction ratio at 1 h [1]: 0.722; half-life [4]: 12.4 min; half-life [5]: 13 min; hepatic extraction ratio at 1 h [6]: 0.592
– | – | – | COc1ccc(CNc2nc(N3CCCCC3)c3cc(OC)c(O)cc3n2)cc1 | > 50 | 12.3 | –
92.2 | 103 | 3.14 | COc1cc2c(N3CCCCC3)nc(NCc3ccc(Cl)cc3)nc2cc1OC1CCCC1 | 12.2 | 8.13 | hepatic extraction ratio at 1 h [1]: 0.627; half-life [4]: 19.1 min; half-life [5]: 17.5 min; hepatic extraction ratio at 1 h [6]: 0.519
– | – | – | COc1cc2c(N3CCCCC3)nc(Nc3ccc(Cl)cc3)nc2cc1OC1CCCC1 | 37.5 | 22.7 | –
– | – | – | COc1cc2c(N3CCCCC3)nc(N(C)Cc3ccc(Cl)cc3)nc2cc1OC1CCCC1 | > 50 | 10.2 | –
– | – | – | COc1cc2c(N3CCCCC3)nc(N)nc2cc1OC1CCCC1 | > 100 | 19.4 | –
– | – | – | COc1cc2c(N3CCCCC3)nc(N(C)Cc3ccc(Br)cc3)nc2cc1OC1CCCC1 | 34.4 | 54 | –
92.6 | 96.2 | 2.6 | COc1cc2c(N3CCCCC3)nc(NCc3ccc(Br)cc3)nc2cc1OC1CCCC1 | 15.2 | 2.57 | selectivity ratio [10]: 10.9; hepatic extraction ratio at 1 h [1]: 0.281; CC50 at 48 h [11]: 28.1 µM; half-life [4]: 83.4 min; half-life [5]: 46.5 min; hepatic extraction ratio at 1 h [6]: 0.288
99.3 | 46 | 3.34 | COc1cc2c(N3CCCCC3)nc(NCC3CCCCC3)nc2cc1OC1CCCC1 | 6.97 | 4.36 | hepatic extraction ratio at 1 h [1]: 0.747; half-life [4]: 22.2 min; half-life [5]: 16.3 min; hepatic extraction ratio at 1 h [6]: 0.699
88.7 | 93.7 | 2.59 | COc1cc2c(N3CCCCC3)nc(NCc3ccccc3)nc2cc1OC1CCCC1 | 4.13 | 7.49 | hepatic extraction ratio at 1 h [1]: 0.607; half-life [4]: 20.8 min; half-life [5]: 19.2 min; hepatic extraction ratio at 1 h [6]: 0.496
97.4 | 77.5 | 2.42 | Clc1ccc(CNc2nc(N3CCCCC3)c3cc4c(cc3n2)OCO4)cc1 | 13.8 | 13.5 | hepatic extraction ratio at 1 h [1]: 0.668; half-life [4]: 16 min; half-life [5]: 10.8 min; hepatic extraction ratio at 1 h [6]: 0.637
91.6 | 81.2 | 2.46 | COc1cc2c(N(C)C)nc(NCc3ccc(F)cc3)nc2cc1OC1CCCC1 | 3.79 | 5.67 | hepatic extraction ratio at 1 h [1]: 0.799; half-life [4]: 8.1 min; half-life [5]: 6.9 min; hepatic extraction ratio at 1 h [6]: 0.733
80.1 | 83.8 | 2.74 | COc1cc2c(N3CCCCC3)nc(N(C)C)nc2cc1OC1CCCC1 | 74.3 | 6.85 | selectivity ratio [10]: 9.65; hepatic extraction ratio at 1 h [1]: 0.452; CC50 at 48 h [11]: 66.1 µM; half-life [4]: 39 min; half-life [5]: 13.7 min; hepatic extraction ratio at 1 h [6]: 0.579
– | – | – | COc1cc2c(N3CCCCC3)nc(NCc3ccccc3)nc2cc1O | 30.2 | 11.3 | –
– | – | – | O=C1CN(C(=O)c2cccc(Nc3ncc(-c4ccc5c(c4)OCO5)cn3)c2)CCN1 | – | – | IC50 (Leishmania donovani [12]): 5 µM
– | – | – | COc1cc2c(N3CCCCC3)nc(NCc3ccc(C)cc3)nc2cc1OC1CCCC1 | 3.49 | 5.32 | –
– | – | – | COc1cc2c(N3CCCCC3)nc(NS(C)(=O)=O)nc2cc1OC1CCCC1 | 57.9 | – | inhibition at 30 µM (Leishmania donovani [13]): ~5.1%
– | – | – | COc1cc2c(N3CCCCC3)nc(N)nc2cc1OCc1ccccc1 | 15.4 | 12 | –
– | – | – | COc1cc2c(N3CCCCC3)nc(NCc3ccccc3)nc2cc1OCc1ccccc1 | > 100 | 9.54 | –
– | – | – | COc1cc2nc(NCc3ccc(F)cc3)nc(N3CCCCC3)c2cc1OC | 11.1 | 13.7 | –
99.1 | 99 | 2.37 | COc1cc2c(N3CCCCC3)nc(NCc3ccc(F)cc3)nc2cc1OC1CCNC1 (configuration not stated) | 6.3 | 4.66 | selectivity ratio [10]: 2.18; hepatic extraction ratio at 1 h [1]: 0.21; CC50 at 48 h [11]: 10.1 µM; half-life [4]: > 120 min; half-life [5]: 52.1 min; hepatic extraction ratio at 1 h [6]: 0.42
– | – | – | COc1ccc(CNc2nc(N3CCCCC3)c3cc(OC)c(OC4CCCC4)cc3n2)cc1 | 4.56 | 16.6 | –
– | – | – | COc1cc2c(N3CCCCC3)nc(NC(=O)c3ccc(C(F)(F)F)cc3)nc2cc1OC1CCCC1 | 79 | – | inhibition at 30 µM (Leishmania donovani [13]): ~34.5%

remaining at 2 h [2] [%] | remaining at 2 h [7] [%] | logD [8] | SMILES | CC50 at 72 h [3] [µM] | IC50 (Leishmania donovani [9]) [µM] | other results
106 | 70.2 | 2.39 | COc1ccc(CNc2nc(N3CCCCC3)c3cc(OC)c(OCc4ccccc4)cc3n2)cc1 | 19.5 | 10.3 | hepatic extraction ratio at 1 h [1]: 0.499; half-life [4]: 32.2 min; half-life [5]: 15.5 min; hepatic extraction ratio at 1 h [6]: 0.548
– | – | – | COc1cc2c(N3CCCCC3)nc(N)nc2cc1O | 22.2 | – | inhibition at 30 µM (Leishmania donovani [13]): ~13.6%
– | – | – | COc1cc2c(N3CCCCC3)nc(Cl)nc2cc1OCc1ccccc1 | > 100 | – | inhibition (Leishmania donovani [13]): inactive
– | – | – | COc1cc2c(N3CCCCC3)nc(NC(=O)c3ccc(Cl)cc3)nc2cc1OC1CCCC1 | 7.58 | 16.6 | –
– | – | – | COc1cc2c(N3CCCCC3)nc(NCc3ccc(F)cc3)nc2cc1O | 28.2 | 12.2 | –
88.9 | 73.2 | 2.22 | CNc1nc(NCc2ccc(F)cc2)nc2cc(OC3CCCC3)c(OC)cc12 | 2.29 | 1.55 | hepatic extraction ratio at 1 h [1]: 0.738; half-life [4]: 11.4 min; half-life [5]: 9.1 min; hepatic extraction ratio at 1 h [6]: 0.674
– | – | – | Cc1cc(N2CCc3ccccc3C2)nc(Nc2ccc(S(=O)(=O)N3CCOCC3)cc2)n1 | – | – | IC50 (Leishmania donovani [12]): 5 µM
88.1 | 97.5 | 2.94 | COc1cc2c(N3CCCCC3)nc(NCc3ccc(C(F)(F)F)cc3)nc2cc1OC1CCCC1 | 28.1 | 17.9 | hepatic extraction ratio at 1 h [1]: 0.455; half-life [4]: 38.9 min; half-life [5]: 20.3 min; hepatic extraction ratio at 1 h [6]: 0.484
– | – | – | COc1cc2c(N(C)C)nc(NCc3ccc(Br)cc3)nc2cc1O | – | 4.78 | –
– | – | – | COc1cc2c(N3CCCCC3)nc(NCc3ccc([N+](=O)[O-])cc3)nc2cc1OC1CCCC1 | 5.68 | 9.63 | –
– | – | – | COc1cc2c(N3CCCCC3)nc(NS(C)(=O)=O)nc2cc1O | > 100 | – | inhibition at 30 µM (Leishmania donovani [13]): ~3.25%
– | – | – | COc1cc2c(N3CCCCC3)nc(NS(C)(=O)=O)nc2cc1OCc1ccccc1 | > 50 | – | inhibition at 30 µM (Leishmania donovani [13]): ~5.5%
– | – | – | COc1cc2c(N3CCCCC3)nc(NCc3ccc(F)cc3)nc2cc1OCc1ccccc1 | 26.9 | 10.5 | –
– | – | – | COc1cc2c(N(C)C)nc(NCc3ccc(Br)cc3)nc2cc1OC1CCNC1 (configuration not stated) | – | 3.26 | –
– | – | – | COc1cc2c(N3CCCCC3)nc(NC3CCCCC3)nc2cc1OC1CCCC1 | 10.2 | 3.28 | –
95.6 | 59.3 | 3.22 | COc1cc2c(N3CCOCC3)nc(NCc3ccc(F)cc3)nc2cc1OC1CCCC1 | > 50 | 12 | hepatic extraction ratio at 1 h [1]: 0.843; half-life [4]: 6 min; half-life [5]: 6.9 min; hepatic extraction ratio at 1 h [6]: 0.732
– | – | – | COc1ccc(-c2cnc(NC(=O)c3ccc(F)cc3)n2C)cc1 | > 50 | 15 | IC50 (Leishmania donovani [12]): 1.2 µM
44 | 63 | 3.66 | COc1cc2c(N3CCCCC3)nc(NCc3ccc(C(C)(C)C)cc3)nc2cc1OC1CCCC1 | 2.63 | 4.93 | hepatic extraction ratio at 1 h [1]: 0.216; half-life [4]: 117 min; half-life [5]: 22.8 min; hepatic extraction ratio at 1 h [6]: 0.454
– | – | – | COc1cc2c(N3CCCCC3)nc(NCc3ccc(C(F)(F)F)cc3)nc2cc1O | 27.1 | 8.91 | –
– | – | – | CCCCCCCCCCCCCCCCOP(=O)([O-])OCC[N+](C)(C)C [MILTEFOSINE] | 25 | 5.37 | selectivity ratio [10]: 9.38; CC50 at 48 h [11]: 51.6 µM
– | – | – | CCCCc1ccc(CNc2nc(N3CCCCC3)c3cc(OC)c(OC4CCCC4)cc3n2)cc1 | 5.69 | – | inhibition at 30 µM (Leishmania donovani [13]): ~17%
– | – | – | COc1ccc(-c2cnc(NC(=O)c3cc(-c4ccccn4)n[nH]3)n2C)cc1 | – | – | IC50 (Leishmania donovani [12]): 1 µM
– | – | – | COc1cc2c(N3CCCCC3)nc(N(C)C)nc2cc1O | 73.4 | – | inhibition at 30 µM (Leishmania donovani [13]): ~18.8%

SMILES | remaining at 2 h [2] [%] | remaining at 2 h [7] [%] | logD [8] | CC50 at 72 h [3] [µM] | IC50 (Leishmania donovani [9]) [µM] | other results
O=c1c(O)c(-c2ccc(O)c(O)c2)oc2cc(O)cc(O)c12 [QUERCETIN] | – | – | 2.5 | – | – | –
CC(C)[N+](C)(CCOC(=O)C1c2ccccc2Oc2ccccc21)C(C)C [PROPANTHELINE] | 37.2 | 1.2 | – | – | – | –
